Values quoted from earlier work as cited in patent publication US6955827B2, “Method of controlling release of antimicrobial agents in chewing gum” (Wm. Wrigley Jr. Company, priority 1997, dated 2005).

Details: at 25° C.

water solubility	Structure (SMILES)
50%	N=C(NCCCCCCNC(=N)NC(=N)Nc1ccc(Cl)cc1)NC(=N)Nc1ccc(Cl)cc1.O=C(O)[C@H](O)[C@@H](O)[C@H](O)[C@H](O)CO.O=C(O)[C@H](O)[C@@H](O)[C@H](O)[C@H](O)CO [Chlorhexidine digluconate, chlorhexidine digluconate]
about 0.05%	CCCCCCc1ccc(O)cc1O [Hexylresorcinol, hexylresorcinol]
about 0.05%	Oc1cc(Cl)ccc1Oc1ccc(Cl)cc1Cl [Triclosan, 2,4,4-trichloro-2-hydroxydiphenyl ether]

Structure (SMILES)	water solubility
CCCCCCCCCCCCCCCC[n+]1ccccc1 [Cetylpyridinium chloride, cetylpyridinium chloride]	33%
